Patent US10618903B2, “Heteroaryl substituted aminopyridine compounds” (BRISTOL-MYERS SQUIBB COMPANY, priority 2015, dated 2020)

What was measured:
[1] = tested on: IL-6 levels in human whole blood stimulated with a TLR2 agonist; assay: IRAK4 Whole Blood Assay (lipoteichoic acid/TLR2-stimulated IL-6); format: cell-based; settings: Homo sapiens, lipoteichoic acid 10 μg/mL, IL-6 readout
Protocol: Human whole blood containing the anti-coagulant ACD-A was plated in 384-well plate (25 μL/well) and incubated with compounds for 60 minutes at 37° C. in a 5% CO2 incubator. The blood was stimulated with a TLR2 agonist, 10 μg/mL final concentration of lipoteichoic acid (Invivogen, San Diego, Calif.) in 25 μL RPMI (Gibco) for 5 hours in a 5% CO2 incubator. At the end of the incubation, plates were centrifuged at 2300 rpm for 5 minutes. Supernatants were harvested and analyzed for IL-6 levels by Flow Cytometry beads assay (BD Biosciences, San Jose, Calif.).

[2] = biological target: IRAK4 (Homo sapiens (Human), UniProt Q9NWZ3); assay: IRAK4 Inhibition Assay; format: biochemical; settings: ATP 500 μM; IRAK4 0.6 nM
Sequence of IRAK4 (Q9NWZ3 whole entry): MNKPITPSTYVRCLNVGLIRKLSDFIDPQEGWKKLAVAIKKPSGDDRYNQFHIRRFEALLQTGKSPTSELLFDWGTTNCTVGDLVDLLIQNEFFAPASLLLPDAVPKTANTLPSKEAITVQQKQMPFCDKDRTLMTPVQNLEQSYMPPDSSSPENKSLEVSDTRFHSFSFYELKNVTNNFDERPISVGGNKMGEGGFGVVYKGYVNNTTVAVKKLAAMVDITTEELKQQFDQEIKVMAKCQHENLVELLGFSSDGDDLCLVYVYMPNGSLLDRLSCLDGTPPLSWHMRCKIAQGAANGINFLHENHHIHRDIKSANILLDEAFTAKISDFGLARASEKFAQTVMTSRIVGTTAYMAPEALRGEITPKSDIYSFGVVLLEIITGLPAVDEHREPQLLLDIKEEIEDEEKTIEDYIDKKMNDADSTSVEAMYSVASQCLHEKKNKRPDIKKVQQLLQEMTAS
Summary of the method: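 Mobility-shift kinase assay: 0.6 nM IRAK4, 500 μM ATP, 1.5 μM fluorescent peptide, 60 min, room temperature. Percent inhibition was normalised between enzyme-free and DMSO-only wells.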

Row | SMILES | EC50 [1] | IC50 [2]
1 | CC(F)CCNc1cc(-c2cnn3cc(Cl)cnc23)ncc1C(=O)NC[C@@H](F)C(C)(C)O (stereo partly drawn) [Example 160, 6-(6-chloropyrazolo[1,5-a]pyrimidin-3-yl)-N—((R)-2-fluoro-3-hydroxy-3-methylbutyl)-4-((3-fluorobutyl)amino)nicotinamide] | 810 nM | 6 nM
2 | CO[C@H]1CC[C@H](Nc2cc(-c3cnn4cc(Cl)cnc34)ncc2C(=O)NC[C@@H](F)C(C)(C)O)CC1 [Example 165, 6-(6-chloropyrazolo[1,5-a]pyrimidin-3-yl)-N—((R)-2-fluoro-3-hydroxy-3-methylbutyl)-4-(((1r,4R)-4-methoxycyclohexyl)amino)nicotinamide] | 470 nM | 6 nM
3 | CCO[C@H]1CC[C@H](NC(=O)c2cnc(-c3cnn4cc(Cl)cnc34)cc2NC(C)C)CC1 [Example 166, 6-(6-chloropyrazolo[1,5-a]pyrimidin-3-yl)-N-((1r,4r)-4-ethoxycyclohexyl)-4-(isopropylamino)nicotinamide] | 660 nM | 5 nM
4 | CC(=O)N[C@H](C)CCNC(=O)c1cnc(-c2cnn3cc(Cl)cnc23)cc1NC(C)C [Example 167, (R)—N-(3-acetamidobutyl)-6-(6-chloropyrazolo[1,5-a]pyrimidin-3-yl)-4-(isopropylamino) nicotinamide] | 550 nM | 5 nM
5 | CC(C)Nc1cc(-c2cnn3cc(Cl)cnc23)ncc1C(=O)NCCCS(C)(=O)=O [Example 168, 6-(6-chloropyrazolo[1,5-a]pyrimidin-3-yl)-4-(isopropylamino)-N-(3-(methylsulfonyl)propyl)nicotinamide] | 760 nM | 16 nM
6 | CC(C)Nc1cc(-c2cnn3cc(C#N)cnc23)ncc1C(=O)NC[C@@H](F)C(C)(C)OC(F)F [Example 170, (R)-6-(6-cyanopyrazolo[1,5-a]pyrimidin-3-yl)-N-(3-(difluoromethoxy)-2-fluoro-3-methylbutyl)-4-(isopropylamino)nicotinamide] | 820 nM | 5 nM
7 | CC(C)Nc1cc(-c2cnc3cc(C#N)cnn23)ncc1C(=O)NCC(F)(F)C(C)(C)O [Example 173, 6-(7-cyanoimidazo[1,2-b]pyridazin-3-yl)-N-(2,2-difluoro-3-hydroxy-3-methylbutyl)-4-(isopropylamino)nicotinamide] | 830 nM | 6 nM
8 | COC(C)(C)[C@H]1CC[C@H](NC(=O)c2cnc(-c3cnc4cc(C#N)cnn34)cc2NC(C)C)CC1 [Example 174, 6-(7-cyanoimidazo[1,2-b]pyridazin-3-yl)-4-(isopropylamino)-N-((1r,4r)-4-(2-methoxypropan-2-yl)cyclohexyl)nicotinamide] | 710 nM | 4 nM
9 | CC(C)(O)[C@H](F)CNC(=O)c1cnc(-c2cnc3cc(Cl)cnn23)cc1N[C@H]1CC[C@H](C(C)(C)F)CC1 [Example 175, 6-(7-chloroimidazo[1,2-b]pyridazin-3-yl)-N—((R)-2-fluoro-3-hydroxy-3-methylbutyl)-4-(((1r,4R)-4-(2-fluoropropan-2-yl)cyclohexyl)amino)nicotinamide] | 480 nM | 3 nM
10 | CC(C)(O)[C@H](F)CNC(=O)c1cnc(-c2cnc3cc(C#N)cnn23)cc1NC1CC1 [Example 182, (R)-6-(7-cyanoimidazo[1,2-b]pyridazin-3-yl)-4-(cyclopropylamino)-N-(2-fluoro-3-hydroxy-3-methylbutyl)nicotinamide] | 620 nM | 2 nM
11 | CC(C)Nc1cc(-c2ccc3cc(C#N)cnn23)ncc1C(=O)NC[C@@H](F)C(C)(C)O [Example 193, (R)-6-(3-cyanopyrrolo[1,2-b]pyridazin-7-yl)-N-(2-fluoro-3-hydroxy-3-methylbutyl)-4-(isopropylamino)nicotinamide] | 260 nM | 4 nM
12 | CO[C@H]1CC[C@H](Nc2cc(-c3cnc4cc(C#N)cnn34)ncc2C(=O)NC[C@@H](F)C(C)(C)O)CC1 [Example 196, 6-(7-cyanoimidazo[1,2-b]pyridazin-3-yl)-N—((R)-2-fluoro-3-hydroxy-3-methylbutyl)-4-(((1r,4R)-4-methoxycyclohexyl)amino) nicotinamide] | 640 nM | 6 nM
13 | C[C@@H](CF)Nc1cc(-c2cnc3cc(C#N)cnn23)ncc1C(=O)NC[C@@H](F)C(C)(C)O [Example 200, 6-(7-cyanoimidazo[1,2-b]pyridazin-3-yl)-N—((R)-2-fluoro-3-hydroxy-3-methylbutyl)-4-(((S)-1-fluoropropan-2-yl)amino)nicotinamide] | 430 nM | 2 nM
14 | CC[C@@H](C)Nc1cc(-c2cnc3cc(Cl)cnn23)ncc1C(=O)NC[C@@H](F)C(C)(C)O [Example 202, 4-(((R)-sec-butyl)amino)-6-(7-chloroimidazo[1,2-b]pyridazin-3-yl)-N—((R)-2-fluoro-3-hydroxy-3-methylbutyl)nicotinamide] | 750 nM | 2 nM
15 | CC(C)Nc1cc(-c2cnc3cc(C#N)cnn23)ncc1C(=O)NCC(F)C1CC(C)OC(C)C1 (stereo not drawn) [Example 203, 6-(7-cyanoimidazo[1,2-b]pyridazin-3-yl)-N-(2-(2,6-dimethyltetrahydro-2H-pyran-4-yl)-2-fluoroethyl)-4-(isopropylamino)nicotinamide] | 890 nM | 5 nM
16 | CC(C)(O)[C@H](F)CNC(=O)c1cnc(-c2cnc3cc(C#N)cnn23)cc1N[C@H]1CC[C@H](C(C)(C)O)CC1 [Example 204, 6-(7-cyanoimidazo[1,2-b]pyridazin-3-yl)-N—((R)-2-fluoro-3-hydroxy-3-methylbutyl)-4-(((1r,4R)-4-(2-hydroxypropan-2-yl)cyclohexyl)amino)nicotinamide] | 260 nM | 2 nM
17 | CC(C)(O)[C@H](F)CNC(=O)c1cnc(-c2cnc3cc(Cl)cnn23)cc1NC1CC(F)(F)C1 [Example 206, (R)-6-(7-chioroimidazo[1,2-b]pyridazin-3-yl)-4-((3,3-difluorocyclobutyl)amino)-N-(2-fluoro-3-hydroxy-3-methylbutyl)nicotinamide] | 820 nM | 4 nM
18 | CC(C)(O)[C@H](F)CNC(=O)c1cnc(-c2cnc3cc(C#N)cnn23)cc1NC1CCC(F)C1 (stereo partly drawn) [Example 208, 6-(7-cyanoimidazo[1,2-b]pyridazin-3-yl)-N—((R)-2-fluoro-3-hydroxy-3-methylbutyl)-4-((3-fluorocyclopentyl)amino)nicotinamide] | 550 nM | 6 nM
19 | CC(C)Nc1cc(-c2cnc3cc(C(F)F)cnn23)ncc1C(=O)NC[C@H](F)C(C)(C)O [Example 209, (S)-6-(7-(difluoromethyl)imidazo[1,2-b]pyridazin-3-yl)-N-(2-fluoro-3-hydroxy-3-methylbutyl)-4-(isopropylamino)nicotinamide] | 610 nM | 4 nM
20 | CC(C)(O)[C@H](F)CNC(=O)c1cnc(-c2cnc3cc(Cl)cnn23)cc1NCCC(F)F [Example 210, (R)-6-(7-chloroimidazo[1,2-b]pyridazin-3-yl)-4-((3,3-difluoropropyl)amino)-N-(2-fluoro-3-hydroxy-3-methylbutyl)nicotinamide] | 980 nM | 3 nM
21 | CC(C)(O)[C@H](F)CNC(=O)c1cnc(-c2cnc3cc(C#N)cnn23)cc1NCCC(F)F [Example 211, (R)-6-(7-cyanoimidazo[1,2-b]pyridazin-3-yl)-4-((3,3-difluoropropyl)amino)-N-(2-fluoro-3-hydroxy-3-methylbutyl)nicotinamide] | 940 nM | 2 nM
22 | CC(C)Nc1cc(-c2cnc3cc(F)cnn23)ncc1C(=O)NC[C@H](F)C(C)(C)O [Example 212, (S)—N-(2-fluoro-3-hydroxy-3-methylbutyl)-6-(7-fluoroimidazo[1,2-b]pyridazin-3-yl)-4-(isopropylamino)nicotinamide] | 980 nM | 3 nM
23 | CC(C)Nc1cc(-c2cnc3cc(C#N)cnn23)ncc1C(=O)NCCc1cccs1 [Example 213, 6-(7-cyanoimidazo[1,2-b]pyridazin-3-yl)-4-(isopropylamino)-N-(2-(thiophen-2-yl)ethyl)nicotinamide] | 890 nM | 2 nM
24 | CC(C)Nc1cc(-c2cnc3cc(C#N)cnn23)ncc1C(=O)NCCCn1ccnc1 [Example 214, N-(3-(1H-imidazol-1-yl)propyl)-6-(7-cyanoimidazo[1,2-b]pyridazin-3-yl)-4-(isopropylamino)nicotinamide] | 480 nM | 11 nM
25 | CC(C)Nc1cc(-c2cnc3cc(C#N)cnn23)ncc1C(=O)NC1CCC(N(C)C)CC1 (stereo not drawn) [Example 215, 6-(7-cyanoimidazo[1,2-b]pyridazin-3-yl)-N-(4-(dimethylamino)cyclohexyl)-4-(isopropylamino)nicotinamide] | 600 nM | 4 nM
26 | CC(=O)N[C@H]1CC[C@H](NC(=O)c2cnc(-c3cnc4cc(Cl)cnn34)cc2NC(C)C)CC1 [Example 219, N-((1r,4r)-4-acetamidocyclohexyl)-6-(7-chloroimidazo[1,2-b]pyridazin-3-yl)-4-(isopropylamino)nicotinamide] | 450 nM | 18 nM
27 | CC(=O)N[C@H]1CC[C@H](NC(=O)c2cnc(-c3cnc4cc(C#N)cnn34)cc2NC(C)C)CC1 [Example 220, N-((1r,4r)-4-acetamidocyclohexyl)-6-(7-cyanoimidazo[1,2-b]pyridazin-3-yl)-4-(isopropylamino)nicotinamide] | 340 nM | 16 nM
